From US6498945B1, “Sonodynamic therapy using an ultrasound sensitizer compound” (Amersham Health AS, priority 1997, dated 2002)
“Also recorded” adds a separate entry of the source. Where two headings read alike, the source gives them in different places.

Tests used:
[1] = cited from earlier work
HT-29 tumors [2] = assay: Biodistribution / tumor localization in immunodeficient mice with HT-29 tumors; settings: female immunodeficient mice with HT-29 tumors
From the text: (§1) FIG. 2A is a graph of comparative biodistribution data of contrast agent Polymer 3 (NC100448) versus indocyanine green as control in female immunodeficient mice containing HT-29 tumors at one hour post intravenous injection of phosphate buffered saline solutions of each.
(§2) FIG. 2B is a graph of comparative biodistribution data of contrast agent Polymer 3 (NC100448) versus indocyanine green as control in female immunodeficient mice containing HT-29 tumors at three hours post intravenous injection of phosphate buffered saline solutions of each.

[3] = tested on: leucocytes (white blood cells); assay: Fate in dog blood (confocal scanning microscope, flow cytometry); format: in vivo; settings: injected into beagle dogs; flow cytometry and fluorescence microscopy
HT-29 tumors [4] = settings: mouse, in vivo
From the text: as §1, §2

STa receptor = STa receptor (Homo sapiens, UniProt P25092); assay: Competitive inhibition of the STa receptor; format: binding
Sequence of STa receptor (P25092 24-1073, species assumed): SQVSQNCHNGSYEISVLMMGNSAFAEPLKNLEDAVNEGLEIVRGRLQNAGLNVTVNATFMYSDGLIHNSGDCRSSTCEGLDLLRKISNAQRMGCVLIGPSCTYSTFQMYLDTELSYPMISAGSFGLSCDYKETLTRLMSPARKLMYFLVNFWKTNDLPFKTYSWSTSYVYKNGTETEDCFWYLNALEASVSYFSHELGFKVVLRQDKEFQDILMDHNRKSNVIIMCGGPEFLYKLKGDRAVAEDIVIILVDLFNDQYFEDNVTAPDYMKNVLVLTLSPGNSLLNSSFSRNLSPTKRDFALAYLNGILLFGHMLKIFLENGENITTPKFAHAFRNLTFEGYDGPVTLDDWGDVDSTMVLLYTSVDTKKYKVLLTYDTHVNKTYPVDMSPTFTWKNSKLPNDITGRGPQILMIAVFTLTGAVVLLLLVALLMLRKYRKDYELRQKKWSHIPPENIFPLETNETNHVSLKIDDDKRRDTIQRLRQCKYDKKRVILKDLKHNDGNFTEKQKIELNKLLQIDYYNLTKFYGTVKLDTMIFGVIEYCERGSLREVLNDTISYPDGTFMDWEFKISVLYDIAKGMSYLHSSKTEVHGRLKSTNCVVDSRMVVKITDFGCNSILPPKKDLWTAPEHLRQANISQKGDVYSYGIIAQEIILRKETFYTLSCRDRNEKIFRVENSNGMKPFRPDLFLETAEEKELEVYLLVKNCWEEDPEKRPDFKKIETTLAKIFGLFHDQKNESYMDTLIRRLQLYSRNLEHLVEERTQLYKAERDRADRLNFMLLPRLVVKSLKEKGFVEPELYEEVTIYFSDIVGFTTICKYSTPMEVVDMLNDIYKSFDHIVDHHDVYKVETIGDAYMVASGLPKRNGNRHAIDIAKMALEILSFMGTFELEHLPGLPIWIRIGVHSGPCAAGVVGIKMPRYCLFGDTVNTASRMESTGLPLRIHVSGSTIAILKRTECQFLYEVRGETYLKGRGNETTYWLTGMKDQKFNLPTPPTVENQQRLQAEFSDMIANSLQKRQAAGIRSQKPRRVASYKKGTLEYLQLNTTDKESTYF
Procedure: Isolation and purification were done using the same HPLC conditions yielding about 0.1 mg yellow product. Ultra violet maxima in 1/1 water/methanol 10 mM ammonium acetate were: 202 nm (a 0.822), 277 nm (a 0.096), 457 nm (a 0.096), 482 nm (a 0.107). Mass spectrum (electrospray, negative): M−H 2359; M+Na 2381; theoretical M 2360.

[5] = tested on: HL-60 human peripheral blood promyelocytic leukemia cells; assay: Sonication of HL-60 cell suspensions in vitro, cell death by Trypan Blue and LDH; format: cell-based; settings: 148 nanomoles/ml, insonated 60 and 120 seconds, 65 volts, 47 kHz bath
Procedure: HL-60 human peripheral blood promyelocytic leukemia cells (American Type Culture Collection, Rockville, Md.) were grown at 37° C. in a 5% CO2/air atmosphere, in a 1:1 mixture of DMEM and IMEM fortified with 10% fetal bovine serum. Before use, the cells were centrifuged (5 min. at 1500 rpm), washed with phosphate buffered saline (PBS), and then resuspended in PBS, the volume being adjusted to provide cell suspensions containing […]. These were stored in crushed ice until used.
Viability was assessed by staining with Trypan Blue dye. 50 μl of the suspension were mixed with […] Trypan Blue solution (0.4%, Sigma), and the cell concentration counted using a Neubauer-type hemocytometer. Four or five large squares were counted, the blue (dead) cells being counted separately from the unstained (live) cells, and the results averaged. […]
For insonation, the voltage was set to the required value, the power was turned on, and the sample exposed for the required amount of time (secs.). Viability was again assessed with Trypan Blue, the samples were then centrifuged for 5 minutes at 2000 rpm, and a sample of cell free supernatant liquid taken for lactate dehydrogenase (LDH) measurement. […] The LDH was measured by a standard procedure using a Beckman Synchron CX5CE Instrument, the results were measured in IU/l, and afforded a quantitative measurement of cell death in the samples. […]

Question: Which melting point does the source give for `CCOC(=O)c1c(I)c(NS(=O)(=O)c2cccc3c(N(C)C)cccc23)c(I)c(N(CC)C(C)=O)c1I` [Example 52, Ethyl 3-(N-Acetyl-N-ethylamino)-5-[(5-dimethylamino-1-naphthylsulfonyl)amino]-2,4,6-triiodobenzoate] here?
Answer: 238 to 240 °C

Question: For `Oc1ccc2ccccc2c1N=Nc1ccc(N=Nc2ccccc2)cc1` [Sudan III], which “solubility in sesame oil” value ([1]; sesame oil) is on record?
Answer: soluble in sesame oil

Question: And the solubility in water ([1]; water)?
Answer: very insoluble in water

Question: Which results are given for `CC1(C)C(/C=C/C=C/C=C/C=C2\N(CCCCS(=O)(=O)O)c3ccc4ccccc4c3C2(C)C)=[N+](CCCCS(=O)(=O)[O-])c2ccc3ccccc3c21` [indocyanine green]?
Answer: detection in the tumor (FIG. 2A) (HT-29 tumors [2]; one hour post intravenous injection, PBS solution): negligibly detected; detection in the tumor (FIG. 2B) (HT-29 tumors [2]; three hours post intravenous injection, PBS solution): negligibly detected

Question: Which “binding to blood cells” value [3] does the source give for “Air-exposed-Tetronic-908-conjugated-to-fluorescein Isothiocyanate” here?
Answer: binds to a specific cell class within the blood; also recorded: attached to leucocytes (white blood cells)

Question: For ClAlPc(SO2NHPEG5000)4 [Example 45], which “injected dose localized in the tumor after one hour” value (shortened to “injected dose localized”) (HT-29 tumors [4]) is on record?
Answer: 2.5 % of the injected dose

Question: Which “competitive inhibitor of the STa receptor” value (STa receptor) does the source give for “Thiourea Linked 5-fluorescein to STa (syn. 2) [Example 79]” here?
Answer: tested positive

Question: Which “injected dose localized” value (HT-29 tumors [4]) does the source give for “[Melamine][SO2ClAlPc(SO3H)3]3 [Example 46]” here?
Answer: 0.1 % of the injected dose

Question: For “[NH(PEG3400)NHSO2PcAlCl(SO3H)2SO2]n [Example 43]”, which “injected dose localized” value (HT-29 tumors [4]) is on record?
Answer: 4 % of the injected dose

Question: For “bisthioether 2:1 dye:polymer reaction product between 2-[2-[2-chloro-3-[[1,3-dihydro-1,1,-dimethyl-3-(3-sulfopropyl)-2H-benz[e]indol-2-ylidene]ethylidene]-5-(ethoxycarbonyl)-1-cyclohexen-1-yl]ethenyl]-1,1-dimethyl-3-(3-sulfopropyl)-1H-benz[e]indolium, inner salt, sodium salt and disodium PEG3,400-α,ω-dithiolate [Polymer 3]”, which “concentration in the blood at three hours relative to one hour” value (HT-29 tumors [4]) is on record?
Answer: decreased

Question: What about the “concentration in the tumor at three hours relative to one hour” value (HT-29 tumors [4]) of the same molecule?
Answer: increased

Question: And the “detection in the tumor (FIG. 2A)” value (HT-29 tumors [4]; iv)?
Answer: detected in the tumor

Question: And the “detection in the tumor (FIG. 2B)” value (HT-29 tumors [4]; iv)?
Answer: detected in the tumor

Question: For “chloroaluminum phthalocyanine tetrasulfonate”, which “cell killing under ultrasound (FIG. 1)” value [5] is on record?
Answer: Enhancement of Cell Killing

Question: With “copolymer of PEG3400-α,ω-diamine and aluminum(III)phthalocyanine tetrasulfonyl chloride [Example 1]” as the molecule, how does the “injected dose localized” value (HT-29 tumors [2]; solution in phosphate buffered saline injected, one hour) read?
Answer: 4 % of the injected dose

Question: For “copolymer of PEG 5000-α,ω-diamine and aluminum(III)phthalocyanine tetrasulfonyl chloride [Example 4]”, which “injected dose localized” value (HT-29 tumors [4]) is on record?
Answer: 2.5 % of the injected dose

Question: With “copolymer of melamine and aluminum(III)phthalocyanine tetrasulfonyl chloride [Example 5]” as the molecule, how does the “injected dose localized” value (HT-29 tumors [4]) read?
Answer: 0.1 % of the injected dose
